Experimental data: ChEMBL document CHEMBL1128943, “Small peptidic aldehyde inhibitors of human rhinovirus 3C protease” (Bioorg Med Chem Lett, 1996)
Where a SMILES comes first, the peptide text is derived from it. [ ]: non-standard residue; d: D form. The star is where a group is joined. Met(O2) = CS(=O)(=O)CC[C@H](N)C(=O)O; hPhe = N[C@@H](CCc1ccccc1)C(=O)O; Cbz = O=C(OCc1ccccc1)*; Boc = CC(C)(C)OC(=O)*

Legend:
[1] = test system: Human rhinovirus sp.; assay: Antiviral activity against human rhinovirus-14 in HeLa cells; format: functional, organism-based
[2] = test system: HeLa; assay: Cytotoxic activity against HeLa cells using XTT assay.; format: functional; settings: Homo sapiens, read-out: TC50 (the source's name)

IC50 [1]	SMILES	CC50 [2]
3.4 µM	CS(=O)(=O)CC[C@@H](C=O)NC(=O)[C@H](Cc1ccccc1)NC(=O)OCc1ccccc1	> 224 µM
42 µM	NC(=O)CC[C@@H](C=O)NC(=O)[C@H](Cc1ccccc1)NC(=O)OCc1ccccc1	> 224 µM
23.7 µM	CSCC[C@@H](C=O)NC(=O)[C@H](CC(C)C)NC(=O)[C@H](CC(C)C)NC(C)=O (Ac-Leu-Leu-Met-aldehyde)	37.1 µM
81.9 µM	CC(=O)N[C@@H](CC(C)C)C(=O)N[C@@H](CC(C)C)C(=O)N[C@H](C=O)CCS(C)(=O)=O (Ac-Leu-Leu-[Met(O2)]-aldehyde)	> 224 µM
84.1 µM	CSCC[C@@H](C=O)NC(=O)[C@H](Cc1ccccc1)NC(=O)OC(C)(C)C (Boc-Phe-Met-aldehyde)	65.4 µM
71.3 µM	CC(C)(C)OC(=O)N[C@@H](Cc1ccccc1)C(=O)N[C@H](C=O)CCS(C)(=O)=O (Boc-Phe-[Met(O2)]-aldehyde)	148 µM
400 µM	CC(C)C[C@H](NC(=O)[C@@H](NC(=O)OC(C)(C)C)C(C)C)C(=O)N[C@@H](Cc1ccccc1)C(=O)N[C@H](C=O)CCC(N)=O (Boc-VLFQ-aldehyde)	0.6 µM
46.8 µM	CSCC[C@@H](C=O)NC(=O)[C@H](CC(C)C)NC(=O)OCc1ccccc1 (Cbz-Leu-Met-aldehyde)	83 µM
39.3 µM	CC(C)C[C@H](NC(=O)OCc1ccccc1)C(=O)N[C@H](C=O)CCS(C)(=O)=O (Cbz-Leu-[Met(O2)]-aldehyde)	> 224 µM
9.7 µM	CSCC[C@@H](C=O)NC(=O)[C@H](Cc1ccccc1)NC(=O)OCc1ccccc1 (Cbz-Phe-Met-aldehyde)	42.2 µM
20.3 µM	CSCC[C@@H](C=O)NC(=O)[C@H](CCc1ccccc1)NC(=O)OCc1ccccc1 (Cbz-[hPhe]-Met-aldehyde)	13.5 µM
81.2 µM	CS(=O)(=O)CC[C@@H](C=O)NC(=O)[C@H](CCc1ccccc1)NC(=O)OCc1ccccc1 (Cbz-[hPhe]-[Met(O2)]-aldehyde)	162 µM
> 224 µM	CS(=O)(=O)CC[C@@H](C=O)NC(=O)C(Cc1ccccc1)NC(=O)OCc1ccccc1 (single isomer, unassigned)	> 224 µM
17.7 µM	CCCC[C@@H](C=O)NC(=O)[C@H](CC(C)C)NC(=O)OCc1ccccc1 [CALPEPTIN]	22.1 µM
> 224 µM	CC(=O)N[C@@H](CC(C)C)C(=O)N[C@@H](CC(C)C)C(=O)N[C@H](C=O)CCCNC(=N)N [LEUPEPTIN]	> 224 µM
